Experimental data taken from US20240384350A1, “METHODS OF TREATING CANCER WITH KINASE INHIBITORS” (BOARD OF REGENTS, THE UNIVERSITY OF TEXAS SYSTEM, priority 2021, published 2024).

Assays:
Test in all cases: Ba/F3 drug screening, Cell Titer Glo, IC50 Mut/WT
Type in all cases: cell-based
EGFR L747P = target: T1, EGFR L747P (Homo sapiens, UniProt P00533, L747P); conditions: PACC; L747P; Ba/F3; 72 hours
T1 construct: expressed in transfected cells; host or cells: Ba/F3

EGFR G719A L861Q = target: T2, EGFR G719A L861Q (Homo sapiens, UniProt P00533, G719A/L861Q); conditions: PACC; G719A L861Q; Ba/F3; 72 hours
T2 construct: expressed in transfected cells; host or cells: Ba/F3

EGFR L861R = target: T3, EGFR L861R (Homo sapiens, UniProt P00533, L861R); conditions: Classical-Like, 72 hours
T3 construct: expressed in transfected cells; host or cells: Ba/F3 cells, retroviral pBabe-Puro vector (vector made by GeneScript from EGFR WT)

EGFR Ex19del T790M L718V = target: T4, EGFR Ex19del T790M L718V (Homo sapiens, UniProt P00533, DEL746-750/L718V/T790M); conditions: T790M-like-3S, 72 hours
T4 construct: expressed in transfected cells; host or cells: Ba/F3

EGFR Ex19del G796S = target: T5, EGFR Ex19del G796S (Homo sapiens, UniProt P00533, DEL746-750/G796S); conditions: PACC; Ex19del G796S; Ba/F3; 72 hours
T5 construct: expressed in transfected cells; host or cells: Ba/F3

EGFR D761N = target: T6, EGFR D761N (Homo sapiens, UniProt P00533, D761N); conditions: Classical-Like, 72 hours
T6 construct: expressed in transfected cells; host or cells: Ba/F3 cells, retroviral pBabe-Puro vector

EGFR Ex19del L718Q = target: T7, EGFR Ex19del L718Q (Homo sapiens, UniProt P00533, DEL746-750/L718Q); conditions: PACC; Ex19del L718Q; Ba/F3; 72 hours
T7 construct: expressed in transfected cells; host or cells: Ba/F3

EGFR L747S = target: T8, EGFR L747S (Homo sapiens, UniProt P00533, L747S); conditions: PACC; L747S; Ba/F3; 72 hours
T8 construct: expressed in transfected cells; host or cells: Ba/F3

EGFR G719A = target: T9, EGFR G719A (Homo sapiens, UniProt P00533, G719A); conditions: PACC; G719A; Ba/F3; 72 hours
T9 construct: expressed in transfected cells; host or cells: Ba/F3

EGFR L858R/L792H = target: T10, EGFR L858R/L792H (Homo sapiens, UniProt P00533, L792H/L858R); conditions: PACC; L858R/L792H; Ba/F3; 72 hours
T10 construct: expressed in transfected cells; host or cells: Ba/F3

EGFR R776H = target: T11, EGFR R776H (Homo sapiens, UniProt P00533, R776H); conditions: PACC; R776H; Ba/F3; 72 hours
T11 construct: host or cells: Ba/F3

EGFR A763insLQEA = target: T12, EGFR A763insLQEA (Homo sapiens, UniProt P00533, INS763LQEA); conditions: Classical-Like, 72 hours
T12 construct: expressed in transfected cells; host or cells: Ba/F3 cells, retroviral pBabe-Puro vector

EGFR L858R/L718V = target: T13, EGFR L858R/L718V (Homo sapiens, UniProt P00533, L718V/L858R); conditions: PACC; L858R/L718V; Ba/F3; 72 hours
T13 construct: host or cells: Ba/F3

EGFR E709K = target: T14, EGFR E709K (Homo sapiens, UniProt P00533, E709K); conditions: PACC; E709K; Ba/F3; 72 hours
T14 construct: expressed in transfected cells; host or cells: Ba/F3

EGFR N771dupN G724S = target: T15, EGFR N771dupN G724S (Homo sapiens, UniProt P00533, DUP771-771/G724S); conditions: Ex20, 72 hours
T15 construct: expressed in transfected cells; host or cells: Ba/F3 cells, retroviral pBabe-Puro vector (vector made by GeneScript from EGFR G724S, c.2313_2314insAAC)

EGFR L718Q = target: T16, EGFR L718Q (Homo sapiens, UniProt P00533, L718Q); conditions: PACC; L718Q; Ba/F3; 72 hours
T16 construct: expressed in transfected cells; host or cells: Ba/F3

EGFR I740dupIPVAK = conditions: PACC; I740dupIPVAK; Ba/F3; 72 hours
EGFR L833V = target: T17, EGFR L833V (Homo sapiens, UniProt P00533, L833V); conditions: Classical-Like, 72 hours
T17 construct: expressed in transfected cells; host or cells: Ba/F3 cells, retroviral pBabe-Puro vector

EGFR L858R T790M L792H = target: T18, EGFR L858R T790M L792H (Homo sapiens, UniProt P00533, L792H/L858R/T790M); conditions: T790M-like-3S, 72 hours
T18 construct: expressed in transfected cells; host or cells: Ba/F3

EGFR L858R T790M L718V = target: T19, EGFR L858R T790M L718V (Homo sapiens, UniProt P00533, L718V/L858R/T790M); conditions: T790M-like-3R, 72 hours
T19 construct: expressed in transfected cells; host or cells: Ba/F3

EGFR Ex19del T790M = target: T20, EGFR Ex19del T790M (Homo sapiens, UniProt P00533, DEL746-750/T790M); conditions: T790M-like-3S, 72 hours
T20 construct: expressed in transfected cells; host or cells: Ba/F3

EGFR L858R/T790M/L718Q = target: T21, EGFR L858R/T790M/L718Q (Homo sapiens, UniProt P00533, L718Q/L858R/T790M); conditions: T790M-like-3R, 72 hours
T21 construct: expressed in transfected cells; host or cells: Ba/F3

EGFR T790M = target: T22, EGFR T790M (Homo sapiens, UniProt P00533, T790M); conditions: T790M-like-3S, 72 hours
T22 construct: expressed in transfected cells; host or cells: Ba/F3

EGFR S768I/V769L = target: T23, EGFR S768I/V769L (Homo sapiens, UniProt P00533, S768I/V769L); conditions: PACC; S768I/V769L; Ba/F3; 72 hours
T23 construct: host or cells: Ba/F3

`CN(C)C/C=C/C(=O)Nc1cc2c(Nc3ccc(Cl)c(Br)c3)ncnc2cn1` [Tarlox-TKI] was tested, and the “ratio of IC50 for cells with mutant EGFR to IC50 for cells with wildtype EGFR (Mut/WT)” value (shortened to “ratio of IC50 for cells with mutant EGFR”) (EGFR L747P) was 2.085, the “ratio of IC50 for cells with mutant EGFR” value (EGFR G719A L861Q) was 0.4976 and the “ratio of IC50 for cells with mutant EGFR” value (EGFR L861R) was 0.01926. For the same compound, the “ratio of IC50 for cells with mutant EGFR” value (EGFR Ex19del T790M L718V) was 154.4, the “ratio of IC50 for cells with mutant EGFR” value (EGFR Ex19del G796S) was 25.15 and the “ratio of IC50 for cells with mutant EGFR” value (EGFR D761N) was 0.1319. For the same compound, the “ratio of IC50 for cells with mutant EGFR” value (EGFR Ex19del L718Q) was 0.09651, the “ratio of IC50 for cells with mutant EGFR” value (EGFR L747S) was 0.1733 and the “ratio of IC50 for cells with mutant EGFR” value (EGFR G719A) was 0.01637. For the same compound, the “ratio of IC50 for cells with mutant EGFR” value (EGFR L858R/L792H) was 0.346, the “ratio of IC50 for cells with mutant EGFR” value (EGFR R776H) was 0.1639 and the “ratio of IC50 for cells with mutant EGFR” value (EGFR A763insLQEA) was 0.0269. For the same compound, the “ratio of IC50 for cells with mutant EGFR” value (EGFR L858R/L718V) was 0.3578, the “ratio of IC50 for cells with mutant EGFR” value (EGFR E709K) was 0.03467 and the “ratio of IC50 for cells with mutant EGFR” value (EGFR N771dupN G724S) was 0.8301. The “ratio of IC50 for cells with mutant EGFR” value (EGFR L718Q) was 0.06989, the “ratio of IC50 for cells with mutant EGFR” value (EGFR I740dupIPVAK) was 0.5725 and the “ratio of IC50 for cells with mutant EGFR” value (EGFR L833V) was 0.003152. The “ratio of IC50 for cells with mutant EGFR” value (EGFR L858R T790M L792H) was 5.198, the “ratio of IC50 for cells with mutant EGFR” value (EGFR L858R T790M L718V) was 151.6 and the “ratio of IC50 for cells with mutant EGFR” value (EGFR Ex19del T790M) was 14.38. The “ratio of IC50 for cells with mutant EGFR” value (EGFR L858R/T790M/L718Q) was 304.5, the “ratio of IC50 for cells with mutant EGFR” value (EGFR T790M) was 4.92 and the “ratio of IC50 for cells with mutant EGFR” value (EGFR S768I/V769L) was 0.713.
